From ChEMBL document CHEMBL1140579, “Synthesis of andrographolide derivatives and their TNF-alpha and IL-6 expression inhibitory activities” (2007)

Columns and labels:
Conditions in all cases: J774.A1, 24 h
J774.A1 [1] = assay: IL6 secretion in mouse J774A.1 cells at 20 uM after 24 hrs by ELISA
J774.A1 [2] = assay: Inhibition of TNFalpha secretion in mouse J774A.1 cells at 20 uM after 24 hrs by ELISA; values are per cent of control
J774.A1 [3] = assay: Inhibition of LPS-induced IL6 secretion in mouse J774A.1 cells at 20 uM after 24 hrs by ELISA; values are per cent of control
J774.A1 [4] = assay: Inhibition of LPS-induced TNFalpha secretion in mouse J774A.1 cells at 20 uM after 24 hrs by ELISA; values are per cent of control

Row | Compound | % of control at 20 µM (J774.A1 [1]) [%] | level, % of control at 20 µM (J774.A1 [2]) [%] | level, % of control at 20 µM (J774.A1 [3]) [%] | level, % of control at 20 µM (J774.A1 [4]) [%]
1 | CCCCCC(=O)O[C@@H]1CC[C@@]2(C)C3CC(C4=CCOC4=O)O[C@]3(C)CC[C@@H]2[C@]1(C)CO (stereo partly drawn) | 69.8 | 44.4 | 102 | 106
2 | C=C1CC[C@@H]2[C@](C)(CO)[C@H](O)CC[C@@]2(C)[C@@H]1CC(OC(C)=O)C1=CCOC1=O (stereo partly drawn) | 95.1 | 107 | 44.7 | 62.7
3 | C=C1CC[C@@H]2[C@](C)(CO)[C@H](O)CC[C@@]2(C)[C@@H]1CC(OC(=O)c1ccc(C)cc1)C1=CCOC1=O (stereo partly drawn) | 128 | 152 | 32.1 | 41.6
4 | C=C1CC[C@@H]2[C@](C)(CO)[C@H](O)CC[C@@]2(C)[C@@H]1C/C=C1/C(=O)OC[C@H]1O [ANDROGRAPHOLIDE] | 49.2 | 63.9 | 56 | 62.5
5 | C=C1CC[C@@H]2[C@](C)(CO)[C@H](O)CC[C@@]2(C)[C@@H]1CC(OC(=O)c1cc2c(cc1[N+](=O)[O-])OCO2)C1=CCOC1=O (stereo partly drawn) | 70.1 | 115 | 44.6 | 94.4
6 | C=C1CC[C@@H]2[C@](C)(CO)[C@H](O)CC[C@@]2(C)[C@@H]1CC(OC(=O)c1ccccc1)C1=CCOC1=O (stereo partly drawn) | 82 | 92.9 | 37.5 | 60.8
7 | CC(=O)OC[C@@]1(C)[C@H]2CC[C@@]3(C)OC(C4=CCOC4=O)CC3[C@]2(C)CC[C@H]1OC(C)=O (stereo partly drawn) | 72.9 | 80 | 150 | 99.4
8 | C[C@@]12COS(=O)O[C@@H]1CC[C@@]1(C)C3CC(C4=CCOC4=O)O[C@]3(C)CC[C@H]21 (stereo partly drawn) | 79.7 | 61.8 | 208 | 231
9 | CCC(=O)OC[C@@]1(C)[C@H]2CC[C@@]3(C)OC(C4=CCOC4=O)CC3[C@]2(C)CC[C@H]1OC(=O)CC (stereo partly drawn) | 60.5 | 82.8 | 110 | 115
10 | C[C@]1(COC(=O)C(=O)CCC(=O)O)[C@H]2CC[C@@]3(C)OC(C4=CCOC4=O)CC3[C@]2(C)CC[C@H]1OC(=O)C(=O)CCC(=O)O (stereo partly drawn) | 55 | 81.7 | 114 | 129
11 | C[C@]1(COC(=O)c2ccccc2)[C@H]2CC[C@@]3(C)OC(C4=CCOC4=O)CC3[C@]2(C)CC[C@H]1OC(=O)c1ccccc1 (stereo partly drawn) | 48.2 | 204 | 107 | 294
12 | C=C1CC[C@@H]2[C@](C)(CO)[C@H](O)CC[C@@]2(C)[C@@H]1CC(OC(=O)CCCCC)C1=CCOC1=O (stereo partly drawn) | 82.9 | 79.6 | 46.6 | 76
13 | C[C@]1(COC=O)[C@H]2CC[C@@]3(C)OC(C4=CCOC4=O)CC3[C@]2(C)CC[C@H]1OC(=O)c1ccccc1 (stereo partly drawn) | 27.7 | 28.5 | 85.7 | 36.5
14 | CCCCCC(=O)OC[C@@]1(C)[C@H]2CC[C@@]3(C)OC(C4=CCOC4=O)CC3[C@]2(C)CC[C@H]1OC(=O)CCCCC (stereo partly drawn) | 31.4 | 35.7 | 85.2 | 43.8
15 | C=C1CC[C@@H]2[C@](C)(CO)[C@H](O)CC[C@@]2(C)[C@@H]1CC(OC(=O)C/C=C/c1ccc2c(c1)OCO2)C1=CCOC1=O (stereo partly drawn) | 96 | 149 | 56.9 | 61
16 | C=C1CC[C@@H]2[C@](C)(CO)[C@H](O)CC[C@@]2(C)[C@@H]1CC(OC(=O)CC)C1=CCOC1=O (stereo partly drawn) | 82.6 | 70 | 74.7 | 96.9
17 | C=C1CC[C@@H]2[C@](C)(CO)[C@H](O)CC[C@@]2(C)[C@@H]1CC(OC(=O)c1ccc([N+](=O)[O-])cc1)C1=CCOC1=O (stereo partly drawn) | 58.6 | 65.8 | 29.2 | 60
